Columns and labels:
[1] = tested on: recruitment of CDK9 to HEXIM1 gene in MCF7 cells; assay: ChIP assay, CDK9 recruitment to HEXIM1 gene, MCF7 cells; type: cell-based; conditions: 5 mM HMBA or 50 μM 4a1, 90 minutes
Procedure: (§1) FIGS. 6(A-B) illustrate graphs showing HEXIM1 graphs showing HMBA and 4a1 induced recruitment of CDK9 to HEXIM1 promoter in MCF7 and LNCaP cells treated with 5 mM HMBA or 50 μM 4a1 for 90 minutes.
(§2) ChIP assays were carried out as previously described. Anti-CDK9 antibody (D-7; cat# sc-13130) was obtained from Santa Cruz Biotechnology.
(§3) The induction of HEXIM1 by HMBA appears to involve the release of free P-TEFb from 7SK snRNP, and recruitment of P-TEFb to HEXIM1 gene. P-TEFb is a heterodimer between the cyclin-dependent kinase 9 (Cdk9) and its regulatory subunit Cyclin T1 (CycT1). We thus determined the regulation of the recruitment of CDK9 to the HEXIM1 coding sequence by HMBA and 4a1.

[2] = tested on: recruitment of CDK9 to HEXIM1 gene in LNCaP cells; assay: ChIP assay, CDK9 recruitment to HEXIM1 gene, LNCaP cells; type: cell-based; conditions: 5 mM HMBA or 50 μM 4a1, 90 minutes
Procedure: as §1, §2, §3

[3] = tested on: p21 expression in breast cancer MCF7 cells; assay: p21 expression by western blot, MCF7 cells; type: cell-based; conditions: 5 mM HMBA or 50 μM 4a1, 18 hours
Procedure: (§4) FIGS. 7(A-B) illustrate Western blots showing (A) MCF7 (control siRNA or HEXIM1 siRNA) and (B) LNCaP (control shRNA or HEXIM1 shRNA) cells treated with vehicle (DMSO), 5 mM HMBA, or 50 μM 4a1 for 18 hours.
(§5) Cell lysates were analyzed by western blot as previously described. Anti-HEXIM1 was generated in the Montano laboratory. Primary antibodies against p21 (C-19; cat# sc-397), cyclin D1 (HD11; cat# sc-246) and myc (9E10; cat# sc-40) were obtained from Santa Cruz Biotechnology. Anti-GAPDH was obtained from Millipore. Anti-HIF-1α was obtained from Oxy-cell, Bioresearch).
(§6) HMBA was investigated in a Phase II clinical trial due to its potent anti-cancer and cell differentiation activities. Moreover, the roles of HMBA, and potentially 4a1, as differentiating factors are advantageous for their therapeutic use when compared to cytotoxic agents. […] We also examined the ability of 4a1 to induce differentiation and the relative role of HEXIM1.

[4] = tested on: p21 expression in prostate cancer LNCaP cells; assay: p21 expression by western blot, LNCaP cells; type: cell-based; conditions: 5 mM HMBA or 50 μM 4a1, 18 hours
Procedure: as §4, §5, §6

[5] = tested on: MCF7 cells; assay: Nile red staining of lipid droplets (differentiation marker), MCF7 cells; type: cell-based; conditions: 72 hours
Procedure: (§7) FIGS. 8(A-B) illustrate images showing (A) MCF7 cells transfected with control or HEXIM1 siRNA or (B) MDA-MB-231 transfected with control or HEXIM1 expression vector treated with vehicle (DMSO), HMBA, or 4a1 for 72 hours. Lower panels show Western blot analyses of HEXIM1 expression in MDA-MB-231 cells transfected with control or expression vector for Flag-tagged HEXIM1.
(§8) Cells were stained with Nile red for lipid droplets (marker of cell differentiation). Briefly, the stock solution of Nile red 1 mg/ml in acetone was diluted in PBS (1:1000). The fixed cells (4% paraformaldehyde) were incubated with diluted Nile red for 5 minutes at room temperature, rinsed with PBS and observed for the presence of lipid droplets by confocal microscopy. Images were digitally captured using a Leica microscope (Leica Microsystems Inc, IL, USA).

[6] = tested on: triple negative MDA-MB-231 breast cancer cells; assay: Nile red staining of lipid droplets (differentiation marker), MDA-MB-231 cells; type: cell-based; conditions: 72 hours
Procedure: as §7, §8

[7] = tested on: HEXIM1 expression in MCF7/TOTR cells; assay: HEXIM1 expression in tamoxifen resistant MCF7/TOTR cells; type: cell-based; conditions: 5 mM HMBA or 50 μM 4a1
Procedure: (§9) FIGS. 9(A-B) illustrate a Western blot and plots showing HEXIM1 expression in MCF7 and MCF7(TOTR) cells in the presence of vehicle (DMSO), 5 mM HMBA or 50 μM 4a1.
(§10) MCF7, MDA-MB-231, and LNCaP cells were obtained from the American Tissue Culture Collection, and were maintained as previously described. Construction of expression vectors for control miRNA or HEXIM1 miRNAs were described previously. MCF7 or LNCaP cells were transfected with expression vectors containing either the HEXIM1 miRNA insert or a control miRNA insert as previously described. Following blasticidin selection, cells expressing the highest level of GFP were flow-sorted and expanded. MDA-MB-231 cells were transfected with control or expression vector for Flag-tagged HEXIM1 as previously described. […]
Cell lysates were analyzed by western blot as previously described. […]
(§11) We have reported that HEXIM1 is required for the ability of antiestrogens to inhibit the activity of the Estrogen Receptor, that loss of HEXIM1 results in agonistic activity of tamoxifen, and that recurrence after tamoxifen therapy can be correlated with loss of HEXIM1 expression in human breast tissue samples. Thus we determined if HMBA and 4a1 can enhance sensitivity to tamoxifen of a tamoxifen resistant breast cancer line (MCF7/TOTR). […]

[8] = tested on: tamoxifen resistant breast cancer line (MCF7/TOTR); assay: MTT proliferation assay, sensitivity to trans-hydroxytamoxifen; type: cell-based; conditions: 7 days, 5 mM HMBA or 50 μM 4a1
Procedure: as §9
as §10, with “expanded.” for “expanded. MDA-MB-231 cells were transfected with control or expression vector for Flag-tagged HEXIM1 as previously described.”
MCF7 cells were plated onto 96 well plates and treated with 17β-estradiol±trans-hydroxytamoxifen in the presence of DMSO (vehicle), HMBA or 4a1 for 7 days. Cell proliferation was assessed using the MTT based Cell Growth Determination Kit from Sigma-Aldrich according to the manufacturer's protocol.
as §11

[9] = tested on: HEXIM1 targets in MCF7 cells; assay: Western blot of HEXIM1 targets in MCF7 cells; type: cell-based; conditions: 5 mM HMBA or 50 uM 4a1, 18 h, relative to GAPDH
Procedure: FIG. 10 illustrates a Western blot of MCF7 cells treated with vehicle, 5 mM HMBA, or 50 uM 4a1 for 18 h, and processes for analyses of HEXIM1 targets relative to GAPDH.
as §5
To assess the clinical potential of HMBA and 4a1 we need to determine to what extent the targets of HMBA and 4a1 overlap with that of HEXIM1. We focused on direct targets of HEXIM1 that we have identified.

[10] = tested on: HEXIM1; conditions: in vitro cell cultures; cited from earlier work
[11] = cited from earlier work
[12] = administered in vivo; cited from earlier work
[13] = in vivo; cited from earlier work

## CC(=O)NCCCCCCNC(C)=O [HMBA, Hexamethylene bis-acetamide, reference compound]
[1]
  Recruitment of CDK9 to HEXIM1 gene: induce recruitment of CDK9
[2]
  Recruitment of CDK9 to HEXIM1 gene: induce recruitment of CDK9
[3]
  p21 expression: induced p21 expression
[4]
  p21 expression: induction of p21 expression
[5]
  Cell differentiation (lipid droplets, Nile red): induced differentiation
[6]
  Cell differentiation (lipid droplets, Nile red): induced differentiation
[7]
  HEXIM1 expression: induced HEXIM1 expression
[8]
  Sensitivity of TOTR cells to trans-hydroxytamoxifen: enhanced the sensitivity
[9]
  Expression of proteins directly regulated by HEXIM1: regulated expression of proteins
[10]
  Concentrations at which HMBA induces HEXIM1: one to five
[11]
  Water solubility: water soluble
[12]
  Half-life: short half-life
  Tissue distribution: poor tissue distribution
[13]
  Toxicity in Phase II clinical trial: dose-dependent toxicity
